Laboratory results published in patent publication US5422341A, “Motilin-like polypeptides with gastrointestinal motor stimulating activity” (Ohmeda Pharmaceutical Products Division Inc., priority 1993, dated 1995).
Structures can show the parent of a compound that is named as a salt. Square brackets hold non-standard residues; d marks the D form. Peptide text beside a SMILES is read from it. * marks the point of attachment. X3 = C#CC[N+](C)(C)[C@@H](Cc1ccccc1)C(=O)*; X1 = C[N+](C)(C)[C@@H](Cc1ccccc1)C(=O)*; X2 = C#CCN(C)[C@@H](Cc1ccccc1)C(=O)*; NMeF = CN[C@@H](Cc1ccccc1)C(=O)O; Cha = N[C@@H](CC1CCCCC1)C(=O)O; dOrn = NCCC[C@@H](N)C(=O)O

How the values were obtained:
motilin receptor = biological target: T1, motilin receptor (Oryctolagus cuniculus, UniProt G1T803); test: Determination of motilin receptor binding affinity (displacement of [125I-Tyr7, Nle13]motilin(porcine)); design: species or system rabbit; conditions: negative logarithm of the concentration displacing 50% of [125I-Tyr7, Nle13]motilin(porcine) from rabbit antral smooth muscle membranes; read-out: pIC50 (converted)
T1 construct: from tissue; host or cells: rabbit antral smooth muscle membranes
Experimental: The motilin receptor binding affinity of the peptides of this invention was determined by using the general procedure of Bormans, Peelers and Vantrappen, Regul. […] Fitting was performed using the iterative least-squares procedure of the SAS-software package (SAS Institute, Inc., Cary, N.C., USA).

[1] = biological target: segments of rabbit duodenum (Oryctolagus cuniculus, UniProt G1T803); test: Rabbit duodenal smooth muscle strip tissue bath assay; type: cell-based; conditions: negative logarithm of the dose giving 50% of the maximal response to motilin; isotonic contraction of rabbit duodenum segments
Experimental: The contractile response of segments of rabbit duodenum was determined isotonically in the tissue bath according to the procedure of Depoortere et at., J. Gastrointestinal Motility, 1, 150-159 (1989). The experimental protocol consisted of an equilibration period of 1 hour; a challenge with 10^-4 M acetylcholine followed by a wash-out period; a cumulative dose-response curve of a compound with, at the end, the addition of 10^-7 M motilin; and finally 10^-4 M acetylcholine. If the final response to 10^-4 M acetylcholine differed by more than 5% from the initial response, the results were discarded. The compounds were tested in the concentration range 10^-11 to 10^-4 M. The point corresponding to 50% of the maximal response to motilin (Emax) was determined by fitting the equation E=Emax (1+EC50 /[L]) through the data points. […] The dose giving 50% of the response is expressed using its negative logarithm (pEC50).

T1 sequence (G1T803 1-400): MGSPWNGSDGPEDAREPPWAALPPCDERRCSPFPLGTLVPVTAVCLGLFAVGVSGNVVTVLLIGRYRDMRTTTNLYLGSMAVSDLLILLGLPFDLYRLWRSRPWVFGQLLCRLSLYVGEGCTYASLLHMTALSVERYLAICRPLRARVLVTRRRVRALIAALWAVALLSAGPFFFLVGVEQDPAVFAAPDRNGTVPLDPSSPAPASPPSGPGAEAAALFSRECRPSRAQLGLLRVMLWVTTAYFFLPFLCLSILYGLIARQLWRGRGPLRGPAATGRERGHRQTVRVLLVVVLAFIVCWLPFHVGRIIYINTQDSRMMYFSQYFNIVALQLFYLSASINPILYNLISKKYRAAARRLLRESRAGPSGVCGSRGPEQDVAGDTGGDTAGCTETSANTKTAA
Sequence of segments of rabbit duodenum (G1T803 1-400): as above

| Structure (SMILES) | IC50 (motilin receptor) [nM] | pEC50 [1] |
| --- | --- | --- |
| CC[C@H](C)[C@H](NC(=O)[C@H](C)NC(=O)[C@@H](NC(=O)[C@H](Cc1ccccc1)[N+](C)(C)C)C(C)C)C(=O)N[C@@H](Cc1ccccc1)C(=O)N[C@H](C(=O)N[C@@H](Cc1ccc(O)cc1)C(=O)NCC(=O)N[C@@H](CCC(=O)O)C(=O)N[C@@H](CC(C)C)C(=O)N[C@@H](CCC(N)=O)C(=O)N[C@H](CCCNC(=N)N)C(=O)N[C@@H](CC(C)C)C(=O)N[C@H](CCC(N)=O)C(N)=O)[C@@H](C)O (X1-VAIFTYGELQ[dR]L[dQ]-NH2) | 1.41 | 7.20 |
| C#CC[N+](C)(C)[C@@H](Cc1ccccc1)C(=O)N[C@H](C(=O)N1CCC[C@H]1C(=O)N[C@H](C(=O)N[C@@H](Cc1ccccc1)C(=O)N[C@H](C(=O)N[C@@H](Cc1ccc(O)cc1)C(=O)NCC(=O)N[C@@H](CCC(=O)O)C(=O)N[C@@H](CC(C)C)C(=O)N[C@@H](CCC(N)=O)C(=O)N[C@@H](CCCNC(=N)N)C(=O)N[C@@H](CC(C)C)C(=O)N[C@@H](CCC(N)=O)C(N)=O)[C@@H](C)O)[C@@H](C)CC)C(C)C (X3-VPIFTYGELQRLQ-NH2) | 2.14 | 7.65 |
| CC[C@H](C)[C@H](NC(=O)[C@@H]1CCCN1C(=O)[C@@H](NC(=O)[C@H](Cc1ccccc1)NC)C(C)C)C(=O)N[C@@H](Cc1ccccc1)C(=O)N[C@H](C(=O)N[C@@H](Cc1ccc(O)cc1)C(=O)NCC(=O)N[C@@H](CCC(=O)O)C(=O)N[C@@H](CC(C)C)C(=O)N[C@@H](CCC(N)=O)C(=O)N[C@H](CCCNC(=N)N)C(=O)N[C@@H](CC(C)C)C(=O)N[C@@H](CCC(N)=O)C(N)=O)[C@@H](C)O (H-[NMeF]VPIFTYGELQ[dR]LQ-NH2) | 1.02 | 7.95 |
| CC[C@H](C)[C@H](NC(=O)[C@H](C)NC(=O)[C@@H](NC(=O)[C@H](Cc1ccccc1)[N+](C)(C)C)C(C)C)C(=O)N[C@@H](Cc1ccccc1)C(=O)N[C@H](C(=O)N[C@@H](Cc1ccc(O)cc1)C(=O)NCC(=O)N[C@@H](CCC(=O)O)C(=O)N[C@@H](CC(C)C)C(=O)N[C@@H](CCC(N)=O)C(=O)N[C@H](CCCNC(=N)N)C(=O)N[C@@H](CC(C)C)C(=O)N[C@@H](CCC(N)=O)C(N)=O)[C@@H](C)O [[Me3 N^+ Phe^1, Ala^3, D-Arg^13, Leu^13 ]pMOT(1-14) amide] (X1-VAIFTYGELQ[dR]LQ-NH2) |  | 7.32 |
| CC[C@H](C)[C@H](NC(=O)[C@@H]1CCCN1C(=O)[C@@H](NC(=O)[C@H](Cc1ccccc1)[N+](C)(C)C)C(C)C)C(=O)N[C@@H](Cc1ccccc1)C(=O)N[C@H](C(=O)N[C@@H](Cc1ccc(O)cc1)C(=O)NCC(=O)N[C@@H](CCC(=O)O)C(=O)N[C@@H](CC(C)C)C(=O)N[C@@H](CCC(N)=O)C(=O)N[C@@H](CCCNC(=N)N)C(=O)N[C@@H](CC(C)C)C(=O)N[C@@H](CCC(N)=O)C(=O)O)[C@@H](C)O [[Me3 N^+ Phe^1, Leu^13]pMOT(1-14), [1-N,N,N-Trimethylphenylalanine, 13-leucine]motilin-(1-14)-peptide (Porcine) Bis-trifluoroacetate Salt] (X1-VPIFTYGELQRLQ-OH) | 3.55 | 7.69 |
| CC[C@H](C)[C@H](NC(=O)[C@H](C)NC(=O)[C@@H](NC(=O)[C@@H](N)Cc1ccccc1)C(C)C)C(=O)N[C@@H](Cc1ccccc1)C(=O)N[C@H](C(=O)N[C@@H](Cc1ccc(O)cc1)C(=O)NCC(=O)N[C@@H](CCC(=O)O)C(=O)N[C@@H](CC(C)C)C(=O)N[C@@H](CCC(N)=O)C(=O)N[C@H](CCCNC(=N)N)C(=O)N[C@@H](CC(C)C)C(=O)N[C@@H](CCC(N)=O)C(N)=O)[C@@H](C)O (H-FVAIFTYGELQ[dR]LQ-NH2) | 1.95 | 7.76 |
| CC[C@H](C)[C@H](NC(=O)[C@@H]1CCCN1C(=O)[C@@H](NC(=O)[C@@H](N)Cc1ccccc1)C(C)C)C(=O)N[C@@H](Cc1ccccc1)C(=O)N[C@H](C(=O)N[C@@H](Cc1ccc(O)cc1)C(=O)NCC(=O)N[C@@H](CCC(=O)O)C(=O)N[C@@H](CC(C)C)C(=O)N[C@@H](CCC(N)=O)C(=O)N[C@H](CCCNC(=N)N)C(=O)N[C@@H](CC(C)C)C(=O)N[C@@H](CCCCN)C(N)=O)[C@@H](C)O (H-FVPIFTYGELQ[dR]LK-NH2) | 1.29 | 7.13 |
| C#CCN(C)[C@@H](Cc1ccccc1)C(=O)N[C@H](C(=O)N1CCC[C@H]1C(=O)N[C@H](C(=O)N[C@@H](Cc1ccccc1)C(=O)N[C@H](C(=O)N[C@@H](Cc1ccc(O)cc1)C(=O)NCC(=O)N[C@@H](CCC(=O)O)C(=O)N[C@@H](CC(C)C)C(=O)N[C@@H](CCC(N)=O)C(=O)N[C@@H](CCCNC(=N)N)C(=O)N[C@@H](CC(C)C)C(=O)N[C@@H](CCC(N)=O)C(N)=O)[C@@H](C)O)[C@@H](C)CC)C(C)C (X2-VPIFTYGELQRLQ-NH2) | 2 | 7.57 |
| CC[C@H](C)[C@H](NC(=O)[C@@H]1CCCN1C(=O)[C@@H](NC(=O)[C@@H](N)CC1CCCCC1)C(C)C)C(=O)N[C@@H](Cc1ccccc1)C(=O)N[C@H](C(=O)N[C@@H](Cc1ccc(O)cc1)C(=O)NCC(=O)N[C@@H](CCC(=O)O)C(=O)N[C@@H](CC(C)C)C(=O)N[C@@H](CCC(N)=O)C(=O)N[C@H](CCCNC(=N)N)C(=O)N[C@@H](CC(C)C)C(=O)N[C@@H](CCC(N)=O)C(=O)O)[C@@H](C)O [[Cha^1, D-Arg^12, Leu^13]pMOT(1-14)] (H-[Cha]VPIFTYGELQ[dR]LQ-OH) | 1.78 | 7.60 |
| CC[C@H](C)[C@H](NC(=O)[C@@H]1CCCN1C(=O)[C@@H](NC(=O)[C@@H](N)Cc1ccccc1)C(C)C)C(=O)N[C@@H](CC1CCCCC1)C(=O)N[C@H](C(=O)N[C@@H](Cc1ccc(O)cc1)C(=O)NCC(=O)N[C@@H](CCC(=O)O)C(=O)N[C@@H](CC(C)C)C(=O)N[C@@H](CCC(N)=O)C(=O)N[C@H](CCCNC(=N)N)C(=O)N[C@@H](CC(C)C)C(=O)N[C@@H](CCC(N)=O)C(N)=O)[C@@H](C)O [H-Phe-Val-Pro-Ile-Cha-Thr-Tyr-Gly-Glu-Leu-Gln-D-Arg-Leu-Gln-NH2] (H-FVPI[Cha]TYGELQ[dR]LQ-NH2) | 6.76 | 7.30 |
| CC[C@H](C)[C@H](NC(=O)[C@@H]1CCCN1C(=O)[C@@H](NC(=O)[C@@H](N)Cc1ccccc1)C(C)C)C(=O)N[C@@H](Cc1ccccc1)C(=O)N[C@H](C(=O)N[C@@H](Cc1ccc(O)cc1)C(=O)NCC(=O)N[C@@H](CCC(=O)O)C(=O)N[C@@H](CC(C)C)C(=O)N[C@@H](CCC(N)=O)C(=O)N[C@H](CCCN)C(=O)N[C@@H](CC(C)C)C(=O)N[C@@H](CCC(N)=O)C(=O)O)[C@@H](C)O [[D-Orn^12, Leu^13]pMOT(1-14)] (H-FVPIFTYGELQ[dOrn]LQ-OH) | 4.27 | 6.83 |
| CC[C@H](C)[C@H](NC(=O)[C@H](C)NC(=O)[C@@H](NC(=O)[C@H](Cc1ccccc1)NC)C(C)C)C(=O)N[C@@H](Cc1ccccc1)C(=O)N[C@H](C(=O)N[C@@H](Cc1ccc(O)cc1)C(=O)NCC(=O)N[C@@H](CCC(=O)O)C(=O)N[C@@H](CC(C)C)C(=O)N[C@@H](C)C(=O)N[C@H](CCCNC(=N)N)C(=O)N[C@@H](CC(C)C)C(=O)N[C@H](CCC(N)=O)C(N)=O)[C@@H](C)O (H-[NMeF]VAIFTYGELA[dR]L[dQ]-NH2) | 0.724 | 7.32 |
| CC[C@H](C)[C@H](NC(=O)[C@H](C)NC(=O)[C@@H](NC(=O)[C@H](Cc1ccccc1)[N+](C)(C)C)C(C)C)C(=O)N[C@@H](Cc1ccccc1)C(=O)N[C@H](C(=O)N[C@@H](Cc1ccc(O)cc1)C(=O)NCC(=O)N[C@@H](CCC(=O)O)C(=O)N[C@@H](CC(C)C)C(=O)N[C@@H](CCC(N)=O)C(=O)N[C@H](CCCNC(=N)N)C(=O)N[C@@H](CC(C)C)C(=O)N[C@@H](CCC(N)=O)C(N)=O)[C@@H](C)O (X1-VAIFTYGELQ[dR]LQ-NH2) [listing 1 of 2 here] | 2.63 |  |
| CC[C@H](C)[C@H](NC(=O)[C@@H]1CCCN1C(=O)[C@@H](NC(=O)[C@H](Cc1ccccc1)NC)C(C)C)C(=O)N[C@@H](Cc1ccccc1)C(=O)N[C@H](C(=O)N[C@@H](Cc1ccc(O)cc1)C(=O)NCC(=O)N[C@@H](CCC(=O)O)C(=O)N[C@@H](CC(C)C)C(=O)N[C@@H](CCC(N)=O)C(=O)N[C@@H](CCCNC(=N)N)C(=O)N[C@@H](CC(C)C)C(=O)N[C@H](CCC(N)=O)C(N)=O)[C@@H](C)O (H-[NMeF]VPIFTYGELQRL[dQ]-NH2) | 0.617 |  |
| CC[C@H](C)[C@H](NC(=O)[C@H](C)NC(=O)[C@@H](NC(=O)[C@H](Cc1ccccc1)[N+](C)(C)C)C(C)C)C(=O)N[C@@H](Cc1ccccc1)C(=O)N[C@H](C(=O)N[C@@H](Cc1ccc(O)cc1)C(=O)NCC(=O)N[C@@H](CCC(=O)O)C(=O)N[C@@H](CC(C)C)C(=O)N[C@@H](CCC(N)=O)C(=O)N[C@H](CCCNC(=N)N)C(=O)N[C@@H](CC(C)C)C(=O)N[C@@H](CCC(N)=O)C(N)=O)[C@@H](C)O (X1-VAIFTYGELQ[dR]LQ-NH2) [listing 2 of 2 here] | 1.62 |  |
| CC[C@H](C)[C@H](NC(=O)[C@H](C)NC(=O)[C@@H](NC(=O)[C@H](Cc1ccccc1)[N+](C)(C)C)C(C)C)C(=O)N[C@@H](Cc1ccccc1)C(=O)N[C@H](C(=O)N[C@@H](Cc1ccc(O)cc1)C(=O)NCC(=O)N[C@@H](CCC(=O)O)C(=O)N[C@@H](CC(C)C)C(=O)N[C@@H](CCC(N)=O)C(=O)N[C@H](CCCNC(=N)N)C(=O)N[C@@H](CC(C)C)C(=O)N[C@@H](CCC(N)=O)C(N)=O)[C@@H](C)O [[Me3 N^+ Phe^1, Ala^3, D-Arg^12, Leu^13 pMOT(1-14) amide] (X1-VAIFTYGELQ[dR]LQ-NH2) |  | 7.57 |
